Source: patent US4248863A, “Antibiotics saframycins A, B, C, D and E and process for producing the same” (priority 1977, dated 1981)
Values after ≈ are worked out from the molar mass of the structure shown.

Columns and labels:
Mucor mucedo = test: Antimicrobial spectrum, MIC (Table 4); settings: Sabouraud.dextrose.agar, 27° C., 48 hours
Corynebacterium xerosis = test: Antimicrobial spectrum, MIC (Table 4); format: cell-based; settings: 1% glucose nutrient agar, 37° C., 24 or 48 hours
Penicillium glaucum = test: Antimicrobial spectrum, MIC (Table 4); settings: Sabouraud.dextrose.agar, 27° C., 48 hours
Mycobacterium sp. 607 = test: Antimicrobial spectrum, MIC (Table 4); format: cell-based; settings: 3% glycerol nutrient agar for acid-fast bacteria, 37° C., 24 or 48 hours
Micrococcus luteus = test: Antimicrobial spectrum, MIC (Table 4); format: cell-based; settings: 1% glucose nutrient agar, 37° C., 24 or 48 hours
[1] = system: Shigella dysenteriae Shiga; test: microbe, parasite or virus in culture; format: cell-based; settings: 1% glucose nutrient agar, 37° C., 24 or 48 hours
[2] = system: Staphylococcus aureus Smith; test: Antimicrobial spectrum, MIC (Table 4); format: cell-based; settings: 1% glucose nutrient agar, 37° C., 24 or 48 hours
[3] = system: Streptococcus pyogenes 090R; test: Antimicrobial spectrum, MIC (Table 4); format: cell-based; settings: blood agar, 37° C., 24 or 48 hours
Aspergillus oryzae = test: Antimicrobial spectrum, MIC (Table 4); settings: Sabouraud.dextrose.agar, 27° C., 48 hours
Saccharomyces cerevisiae = test: Antimicrobial spectrum, MIC (Table 4); settings: Sabouraud.dextrose.agar, 27° C., 48 hours
Mycobacterium phlei = test: Antimicrobial spectrum, MIC (Table 4); format: cell-based; settings: 3% glycerol nutrient agar for acid-fast bacteria, 37° C., 24 or 48 hours
[4] = system: Staphylococcus aureus 209P; test: Antimicrobial spectrum, MIC (Table 4); format: cell-based; settings: 1% glucose nutrient agar, 37° C., 24 or 48 hours
Brucella abortus = test: microbe, parasite or virus in culture; format: cell-based; settings: blood agar, 37° C., 24 or 48 hours
Salmonella typhimurium = test: Antimicrobial spectrum, MIC (Table 4); format: cell-based; settings: 1% glucose nutrient agar, 37° C., 24 or 48 hours
Streptococcus pyogenes = test: Antimicrobial spectrum, MIC (Table 4); format: cell-based; settings: blood agar, 37° C., 24 or 48 hours
Mycobacterium avium = test: Antimicrobial spectrum, MIC (Table 4); format: cell-based; settings: 3% glycerol nutrient agar for acid-fast bacteria, 37° C., 24 or 48 hours
Bacillus cereus = test: Antimicrobial spectrum, MIC (Table 4); format: cell-based; settings: 1% glucose nutrient agar, 37° C., 24 or 48 hours
Escherichia coli = test: Antimicrobial spectrum, MIC (Table 4); format: cell-based; settings: 1% glucose nutrient agar, 37° C., 24 or 48 hours
Nocardia asteroides = test: Antimicrobial spectrum, MIC (Table 4); format: cell-based; settings: 37° C., 24 or 48 hours
Bacillus subtilis = test: Antimicrobial spectrum, MIC (Table 4); format: cell-based; settings: 1% glucose nutrient agar, 37° C., 24 or 48 hours
Candida albicans = test: Antimicrobial spectrum, MIC (Table 4); settings: Sabouraud.dextrose.agar, 27° C., 48 hours
Staphylococcus albus = test: Antimicrobial spectrum, MIC (Table 4); format: cell-based; settings: 1% glucose nutrient agar, 37° C., 24 or 48 hours
Rhodotorula glutinis = test: Antimicrobial spectrum, MIC (Table 4); settings: Sabouraud.dextrose.agar, 27° C., 48 hours
Staphylococcus citreus = test: Antimicrobial spectrum, MIC (Table 4); format: cell-based; settings: 1% glucose nutrient agar, 37° C., 24 or 48 hours
[5] = system: Trichophyton mentagrophytes; test: Antimicrobial spectrum, MIC (Table 4); settings: Sabouraud.dextrose.agar, 27° C., 72 hours
Klebsiella pneumoniae = test: Antimicrobial spectrum, MIC (Table 4); format: cell-based; settings: 1% glucose nutrient agar, 37° C., 24 or 48 hours
[6] = system: Staphylococcus salivarius; test: Antimicrobial spectrum, MIC (Table 4); format: cell-based; settings: 1% glucose nutrient agar, 37° C., 24 or 48 hours
Pseudomonas aeruginosa = test: Antimicrobial spectrum, MIC (Table 4); format: cell-based; settings: 1% glucose nutrient agar, 37° C., 24 or 48 hours
[7] = system: Corynebacterium dephtheriae; test: Antimicrobial spectrum, MIC (Table 4); format: cell-based; settings: 1% glucose nutrient agar, 37° C., 24 or 48 hours
Aspergillus niger = test: Antimicrobial spectrum, MIC (Table 4); settings: Sabouraud.dextrose.agar, 27° C., 48 hours
Streptococcus faecalis = test: Antimicrobial spectrum, MIC (Table 4); format: cell-based; settings: 1% glucose nutrient agar, 37° C., 24 or 48 hours
Serratia marcescens = test: Antimicrobial spectrum, MIC (Table 4); format: cell-based; settings: 1% glucose nutrient agar, 37° C., 24 or 48 hours

Row | Structure (SMILES) | MIC (Mucor mucedo) [µg/mL] | MIC (Corynebacterium xerosis) [µg/mL] | MIC (Penicillium glaucum) [µg/mL] | MIC (Mycobacterium sp. 607) [µg/mL] | MIC (Micrococcus luteus) [µg/mL] | MIC [1] [µg/mL] | MIC [2] [µg/mL] | Solubility (Solubility; acetone) | Solubility (Solubility; chloroform) | Solubility (Solubility; esters) | Solubility (Solubility; lower alcohols) | Solubility (Solubility; n-hexane) | Solubility (Solubility; water) | MIC (Aspergillus oryzae) [µg/mL] | MIC (Saccharomyces cerevisiae) [µg/mL] | MIC (Mycobacterium phlei) [µg/mL] | MIC [4] [µg/mL] | MIC (Brucella abortus) [µg/mL] | MIC (Salmonella typhimurium) [µg/mL] | MIC (Mycobacterium avium) [µg/mL] | other results
1 | COC1=C(C)C(=O)C2=C(C1=O)[C@@H]1[C@@H]3CC4=C(C(=O)C(OC)=C(C)C4=O)[C@H](CNC(=O)C(C)=O)N3C[C@H]([C@H]2OC)N1C [saframycin C] | > 100.0 | 25.0 (≈ 44 µM) | > 100.0 | > 100.0 | 6.25 (≈ 11 µM) | > 100.0 | 6.25 (≈ 11 µM) | Easily soluble | Easily soluble | Easily soluble | Easily soluble | Insoluble | Insoluble | > 100.0 | > 100.0 | > 100.0 | 25.0 (≈ 44 µM) | 50.0 (≈ 88.1 µM) | > 100.0 | > 100.0 | MIC [3]: 12.5 µg/mL (≈ 22 µM); Solubility (Solubility; benzene): Easily soluble; Solubility (Solubility; ethyl ether): Sparingly soluble; MIC (Streptococcus pyogenes): 25.0 µg/mL (≈ 44 µM); MIC (Bacillus cereus): 100.0 µg/mL (≈ 176 µM); MIC (Escherichia coli): > 100.0 µg/mL; MIC (Nocardia asteroides): 50.0 µg/mL (≈ 88.1 µM); MIC (Bacillus subtilis): 25.0 µg/mL (≈ 44 µM); MIC (Candida albicans): > 100.0 µg/mL; MIC (Staphylococcus albus): 25.0 µg/mL (≈ 44 µM); MIC (Rhodotorula glutinis): > 100.0 µg/mL; MIC (Staphylococcus citreus): 25.0 µg/mL (≈ 44 µM); MIC [5]: > 100.0 µg/mL; MIC (Klebsiella pneumoniae): 50.0 µg/mL (≈ 88.1 µM); MIC [6]: > 100.0 µg/mL; MIC (Pseudomonas aeruginosa): > 100.0 µg/mL; MIC [7]: 3.125 µg/mL (≈ 5.51 µM); MIC (Aspergillus niger): > 100.0 µg/mL; MIC (Streptococcus faecalis): > 100.0 µg/mL; MIC (Serratia marcescens): > 100.0 µg/mL
2 | COC1=C(C)C(=O)C2=C(C1=O)[C@H](CNC(=O)C(C)=O)N1C[C@H]3C(=O)c4c(O)c(C)c(OC)c(O)c4[C@@H]([C@@H]1C2)N3C [saframycin D] | > 100.0 | 6.25 (≈ 11.3 µM) | > 100.0 | 50.0 (≈ 90.3 µM) | 50.0 (≈ 90.3 µM) | > 100.0 | 50.0 (≈ 90.3 µM) | Sparingly soluble | Easily soluble | Sparingly soluble | Easily soluble | Insoluble | Insoluble | > 100.0 | > 100.0 | 50.0 (≈ 90.3 µM) | 25.0 (≈ 45.2 µM) | 25.0 (≈ 45.2 µM) | > 100.0 | 50.0 (≈ 90.3 µM) | Solubility (Solubility; ethyl ether): Sparingly soluble; Solubility (Solubility; pyridine): Easily soluble; MIC (Bacillus cereus): 100.0 µg/mL (≈ 181 µM); MIC (Escherichia coli): > 100.0 µg/mL; MIC (Nocardia asteroides): 50.0 µg/mL (≈ 90.3 µM); MIC (Bacillus subtilis): 50.0 µg/mL (≈ 90.3 µM); MIC (Candida albicans): > 100.0 µg/mL; MIC (Staphylococcus albus): 50.0 µg/mL (≈ 90.3 µM); MIC (Rhodotorula glutinis): > 100.0 µg/mL; MIC (Staphylococcus citreus): 50.0 µg/mL (≈ 90.3 µM); MIC [5]: > 100.0 µg/mL; MIC (Klebsiella pneumoniae): 100.0 µg/mL (≈ 181 µM); MIC (Pseudomonas aeruginosa): > 100.0 µg/mL; MIC [7]: 0.195 µg/mL (≈ 0.352 µM); MIC (Aspergillus niger): > 100.0 µg/mL; MIC (Serratia marcescens): > 100.0 µg/mL
3 | COC1=C(C)C(=O)C2=C(C1=O)[C@H](CNC(=O)C(C)=O)N1C[C@@H]3[C@@H](O)c4c(O)c(C)c(OC)c(O)c4[C@H]([C@@H]1C2)N3C [saframycin E] | > 100.0 | 25.0 (≈ 45 µM) | > 100.0 | 100.0 (≈ 180 µM) | 12.5 (≈ 22.5 µM) | > 100.0 | 50.0 (≈ 90 µM) | Sparingly soluble | Sparingly soluble | Sparingly soluble | Easily soluble | Insoluble | Insoluble | > 100.0 | > 100.0 | 25.0 (≈ 45 µM) | 100.0 (≈ 180 µM) | 25.0 (≈ 45 µM) | > 100.0 | 100.0 (≈ 180 µM) | MIC [3]: 25.0 µg/mL (≈ 45 µM); Solubility (Solubility; pyridine): Easily soluble; MIC (Streptococcus pyogenes): > 100.0 µg/mL; MIC (Bacillus cereus): 25.0 µg/mL (≈ 45 µM); MIC (Escherichia coli): > 100.0 µg/mL; MIC (Nocardia asteroides): 25.0 µg/mL (≈ 45 µM); MIC (Bacillus subtilis): 100.0 µg/mL (≈ 180 µM); MIC (Candida albicans): > 100.0 µg/mL; MIC (Staphylococcus albus): 100.0 µg/mL (≈ 180 µM); MIC (Rhodotorula glutinis): > 100.0 µg/mL; MIC (Staphylococcus citreus): 100.0 µg/mL (≈ 180 µM); MIC [5]: > 100.0 µg/mL; MIC (Klebsiella pneumoniae): 50.0 µg/mL (≈ 90 µM); MIC [6]: 100.0 µg/mL (≈ 180 µM); MIC (Pseudomonas aeruginosa): > 100.0 µg/mL; MIC [7]: 100.0 µg/mL (≈ 180 µM); MIC (Aspergillus niger): > 100.0 µg/mL; MIC (Streptococcus faecalis): > 100.0 µg/mL; MIC (Serratia marcescens): > 100.0 µg/mL
